Assay results published in patent publication US10143740B2, “Inactivating pathogens with oxidizing agents for vaccine production” (priority 2005, dated 2018).
Read-outs that look alike come from different tables or passages of the source.

Legend:
[1] = system: lymphocytic choriomeningitis virus (LCMV)
[2] = mouse, in vivo; cited from earlier work
[3] = in vitro and in vivo; cited from earlier work
[4] = rats, inhalation; cited from earlier work

OO [H2O2, hydrogen peroxide]
H2O2 concentration after which no infectious virus could be detected (vaccinia virus): ≤ 0.03% | viral titer after treatment (vaccinia virus): reduced to below the limit of detection | viral titer after treatment (yellow fever virus (YFV)): reduced to below the limit of detection | viral titer after treatment (monkeypox virus (MPV)): reduced to below the limit of detection | viral titer after treatment (West Nile virus (WNV)): reduced to below the limit of detection | H2O2 concentration at which infectivity is eliminated [1]: < 0.1% | viral titer after treatment [1]: reduced to below the limit of detection

O=C1CCO1 [betapropiolactone]
carcinogenicity [2]: produce squamous cell carcinomas, lymphomas and hepatomas

C=O [formaldehyde]
genotoxicity [3]: genotoxic in vitro and in vivo | carcinogenicity [4]: induces squamous-cell carcinoma of the nasal cavity
